Data: US9643967B2, “Pyrrolo[3,2-c]pyridine derivatives as TLR inhibitors” (TAKEDA PHARMACEUTICAL COMPANY LIMITED, priority 2013, dated 2017)

Biological target: T1, hTLR9 (Homo sapiens, UniProt Q9NR96)
T1 construct: expressed in transfected cells; host or cells: HEK-Blue-hTLR9 cells (HEK293)
T1 sequence (Q9NR96 26-1032): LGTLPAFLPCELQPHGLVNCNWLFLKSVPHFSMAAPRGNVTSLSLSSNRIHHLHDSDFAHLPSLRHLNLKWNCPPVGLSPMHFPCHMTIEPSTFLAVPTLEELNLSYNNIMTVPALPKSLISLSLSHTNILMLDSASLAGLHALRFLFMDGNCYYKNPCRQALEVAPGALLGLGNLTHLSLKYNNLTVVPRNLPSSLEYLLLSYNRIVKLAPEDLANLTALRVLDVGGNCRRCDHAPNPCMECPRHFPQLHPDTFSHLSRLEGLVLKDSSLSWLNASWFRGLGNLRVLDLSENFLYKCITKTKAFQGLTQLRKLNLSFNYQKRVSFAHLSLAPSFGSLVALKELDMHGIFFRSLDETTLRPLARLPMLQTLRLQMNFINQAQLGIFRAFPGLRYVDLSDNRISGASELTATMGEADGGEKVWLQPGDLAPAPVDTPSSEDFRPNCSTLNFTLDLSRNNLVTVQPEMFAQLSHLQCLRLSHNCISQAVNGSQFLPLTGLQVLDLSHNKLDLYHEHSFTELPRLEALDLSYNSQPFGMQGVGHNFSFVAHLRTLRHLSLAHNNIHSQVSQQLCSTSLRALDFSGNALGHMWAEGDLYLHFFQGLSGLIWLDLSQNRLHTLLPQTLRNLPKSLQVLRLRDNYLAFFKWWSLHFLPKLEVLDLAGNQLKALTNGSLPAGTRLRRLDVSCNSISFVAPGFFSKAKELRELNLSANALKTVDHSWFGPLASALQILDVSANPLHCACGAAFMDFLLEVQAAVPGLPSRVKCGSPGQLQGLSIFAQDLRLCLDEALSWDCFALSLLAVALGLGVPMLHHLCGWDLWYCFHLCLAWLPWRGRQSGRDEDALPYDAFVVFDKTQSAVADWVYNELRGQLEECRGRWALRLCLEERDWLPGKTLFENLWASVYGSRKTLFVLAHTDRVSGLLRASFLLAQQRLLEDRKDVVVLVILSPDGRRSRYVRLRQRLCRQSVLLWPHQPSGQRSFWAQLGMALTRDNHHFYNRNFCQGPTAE
Assay: hTLR9 antagonism (SEAP inhibition assay) in HEK-Blue-hTLR9 (HEK293) cells, ODN-2006 stimulated
Type: cell-based
Conditions: HEK-Blue hTLR9, 1 μM; SEAP, HEK-Blue-hTLR9 cells; read-out: hTLR9 inhibitory activity (% at 1 μM)
Method: hTLR9 Antagonism (SEAP Inhibition Assay) in HEK293 Cell Lines
The SEAP reporter gene in HEK-Blue™-hTLR9 cells is placed under the control of the IFN-b minimal promoter fused to five NF-kB and AP-1 binding sites. The stimulation with a TLR9 ligand (ODN-2006) activates NF-kB and AP-1 which induces the production of SEAP. Levels of SEAP are determined with QUANTI-Blue™ detection medium that turns purple/blue in the presence of alkaline phosphatase. Decrease in the levels of SEAP production as indicated by reduction in absorbance at 650 nm is directly co-related with the TLR9 inhibitory activity of the antagonist (NCE).
HEK-Blue™-hTLR9 cells were maintained in DMEM with 10% FBS, 1% Penicillin/Streptomycin/Amphotericin (complete growth medium) and 0.2% Normocin. For the assay, cells were dissociated by washing in 1×PBS and re-suspended in complete DMEM. Cells were seeded at a density of 20000 cells per well; (40 μl per well) in a 384 well assay plate.
5 μl of 10× antagonist (NCE) was added to the cells in triplicates for each concentration. The plate was incubated for half an hour at 37° C. with 5% CO2. 5 μl of agonist (ODN-2006) was added and the plate was incubated overnight for 18 hours at 37° C. with 5% CO2. 5 μl of supernatant was transferred to a 384 well reading plate and to this 45 μl of Quanti-Blue™ detection reagent was added. The plate was then incubated for an hour at 37° C. SEAP activity in the supernatant was indicated by change in the pink color of Quanti-Blue™ detection reagent to purple/blue and the absorbance was read at 650 nm in the end point mode.

Row | Compound | inhibition at 1 µM
1 | CN1CCN(c2ccc(-c3nccc4[nH]c(CN5CCOCC5)cc34)cn2)CC1 [Example A59, 4-[[4-[6-(4-methylpiperazin-1-yl)-3-pyridyl]-1H-pyrrolo[3,2-c]pyridin-2-yl]methyl]morpholine] | 94.7%
2 | CN1CCN(C(=O)c2ccc(-c3nccc4[nH]c(CN5CCOCC5)cc34)cc2)CC1 [Example A22, (4-methylpiperazin-1-yl)-[4-[2-(morpholinomethyl)-1H-pyrrolo[3,2-c]pyridin-4-yl]phenyl] methanone] | 62%
3 | CC(C)N1CCN(c2ccc(-c3nc(C(F)(F)F)cc4[nH]c(CN5CCOCC5)cc34)cc2)CC1 [Example A32, 4-[[4-[4-(4-isopropylpiperazin-1-yl)phenyl]-6-(trifluoromethyl)-1H-pyrrolo[3,2-c]pyridin-2-yl]methyl] morpholine] | 49%
4 | CN1CCN(c2ccc(-c3nc(C(F)(F)F)cc4[nH]c(CN5CCOCC5)cc34)cc2)CC1 [Example A31, 4-[[4-[4-(4-methylpiperazin-1-yl)phenyl]-6-(trifluoromethyl)-1H-pyrrolo[3,2-c]pyridin-2-yl]methyl] morpholine] | 66%
5 | OC1CCN(c2ccc(-c3nccc4[nH]c(CN5CCOCC5)cc34)cc2)CC1 [Example A69, 1-[4-[2-(morpholinomethyl)-1H-pyrrolo[3,2-c]pyridin-4-yl]phenyl]piperidin-4-ol] | 73.5%
6 | c1cc2[nH]c(CN3CCOCC3)cc2c(-c2ccc(C3CCN(C4COC4)CC3)cc2)n1 [Example A65, 4-[[4-[4-[1-(oxetan-3-yl)-4-piperidyl]phenyl]-1H-pyrrolo[3,2-c]pyridin-2-yl]methyl] morpholine] | 70.5%
7 | COC(=O)C1CCN(c2ccc(-c3nccc4[nH]c(CN5CCOCC5)cc34)cc2)CC1 [Example A67, methyl 1-[4-[2-(morpholinomethyl)-1H-pyrrolo[3,2-c]pyridin-4-yl]phenyl]piperidine-4-carboxylate] | 27.5%
8 | FC(F)(F)CN1CCN(c2ccc(-c3nccc4[nH]c(CN5CCOCC5)cc34)cc2)CC1 [Example A75, 4-[[4-[4-[4-(2,2,2,2-trifluoroethyl)piperazin-1-yl]phenyl]-1H-pyrrolo[3,2-c]pyridin-2-yl]methyl]morpholine] | 34.9%
9 | Cc1nc(-c2ccc(N3CCN(C(C)C)CC3)cc2)c2cc(CCN3CCCCC3)[nH]c2c1C [Example B9, 4-[4-(4-isopropylpiperazin-1-yl)phenyl]-6,7-dimethyl-2-[2-(1-piperidyl)ethyl]-1H-pyrrolo[3,2-c]pyridine] | 95.2%
10 | O=C(O)C1CCN(c2ccc(-c3nccc4[nH]c(CN5CCOCC5)cc34)cc2)CC1 [Example A68, 1-[4-[2-(morpholinomethyl)-1H-pyrrolo[3,2-c]pyridin-4-yl]phenyl]piperidine-4-carboxylic acid] | 21%
11 | CC(C)N1CCN(C(=O)c2ccc(-c3nccc4[nH]c(CN5CCOCC5)cc34)cc2)CC1 [Example A19, (4-isopropylpiperazin-1-yl)-[4-[2-(morpholinomethyl)-1H-pyrrolo[3,2-c]pyridin-4-yl]phenyl] methanone] | 90%
12 | CC1(O)CCN(c2ccc(-c3nccc4[nH]c(CN5CCOCC5)cc34)cc2)CC1 [Example A10, 4-methyl-1-[4-[2-(morpholinomethyl)-1H-pyrrolo[3,2-c]pyridin-4-yl]phenyl] piperidin-4-ol] | 29%
13 | CC(C)N1CCN(C2CCC(c3nccc4[nH]c(CN5CCOCC5)cc34)CC2)CC1 (stereo not drawn) [Example A79, 4-[[4-[4-(4-isopropylpiperazin-1-yl)cyclohexyl]-1H-pyrrolo[3,2-c]pyridin-2-yl]methyl]morpholine] | 100%
14 | c1cc2[nH]c(CN3CCOCC3)cc2c(-c2cnn(C3CCNCC3)c2)n1 [Example A45, 4-[[4-[1-(4-piperidyl)pyrazol-4-yl]-1H-pyrrolo [3,2-c]pyridin-2-yl]methyl] morpholine] | 76.1%
15 | C1=C(c2ccc(-c3nccc4[nH]c(CN5CCOCC5)cc34)cc2)CCN(C2COC2)C1 [Example A11, 4-[[4-[4-[1-(oxetan-3-yl)-3,6-dihydro-2H-pyridin-4-yl]phenyl]-1H-pyrrolo[3,2-c]pyridin-2-yl]methyl] morpholine] | 77.5%

Next, values leading:

Row | inhibition at 1 µM | Compound
16 | 86.1% | CC(C)N1CCN(c2ccc(-c3nccc4[nH]c(CN5CCOCC5)c(Cl)c34)cc2)CC1 [Example A71, 4-[[3-chloro-4-[4-(4-isopropylpiperazin-1-yl)phenyl]-1H-pyrrolo[3,2-c]pyridin-2-yl]methyl]morpholine]
17 | 96.4% | Cc1cc2[nH]c(CN3CCC(F)CC3)cc2c(-c2ccc(N3CCN(C(C)C)CC3)cc2)n1 [Example A27, 2-[(4-fluoro-1-piperidyl)methyl]-4-[4-(4-isopropylpiperazin-1-yl)phenyl]-6-methyl-1H-pyrrolo[3,2-c]pyridine]
18 | 98% | CC(C)N1CCN(c2ncc(-c3nccc4[nH]c(CN5CCOCC5)cc34)s2)CC1 [Example A58, 4-[[4-[2-(4-isopropylpiperazin-1-yl)thiazol-5-yl]-1H-pyrrolo[3,2-c]pyridin-2-yl]methyl]morpholine]
19 | 81.2% | c1cc2[nH]c(CN3CCOCC3)cc2c(-c2ccc(N3CCN(Cc4cocn4)CC3)cc2)n1 [Example A76, 4-[[4-[4-[4-(oxazol-4-ylmethyl)piperazin-1-yl]phenyl]-1H-pyrrolo[3,2-c]pyridin-2-yl]methyl]morpholine]
20 | 72% | COC(=O)[C@H]1CCCN1Cc1cc2c(-c3ccc(N4CCN(C(C)C)CC4)cc3)nccc2[nH]1 [Example A73, methyl (2R)-1-[[4-[4-(4-isopropyl-piperazin-1-yl)phenyl]-1H-pyrrolo[3,2-c]pyridin-2-yl]methyl]pyrrolidine-2-carboxylate]
21 | 29.5% | c1cc2[nH]c(CN3CCOCC3)cc2c(-c2ccc(N3CCOCC3)cc2)n1 [Example A83, 4-[4-[2-(morpholinomethyl)-1H-pyrrolo[3,2-c]pyridin-4-yl]phenyl]morpholine]
22 | 98.7% | Cc1cc2[nH]c(CCCN3CCOCC3)cc2c(-c2ccc(N3CCN(C)CC3)cc2)n1 [Example C4, 4-[3-[6-methyl-4-[4-(4-methylpiperazin-1-yl)phenyl]-1H-pyrrolo[3,2-c]pyridin-2-yl]propyl]morpholine]
23 | 100% | CC(C)N1CCN(c2ccc(-c3nccc4[nH]c(CN5CCC(F)(F)C5)cc34)cc2)CC1 [Example A18, 2-[(3,3-difluoropyrrolidin-1-yl)methyl]-4-[4-(4-isopropylpiperazin-1-yl)phenyl]-1H-pyrrolo[3,2-c]pyridine]
24 | 83.5% | c1cc(-c2nccc3[nH]c(CN4CCOCC4)cc23)cc(N2CCNCC2)c1 [Example A46, 4-[[4-(3-(piperazin-1-yl)phenyl)-1H-pyrrolo[3,2-c]pyridin-2-yl]methyl] morpholine]
